Measurements published in patent US11578125B2, “Anti-thyroid hormone (T4) recombinant antibody or antigen binding fragment” (Teknologian tutkimuskeskus VTT Oy, priority 2018, dated 2023).
pIC50, pKd: −log10 of the molar value.

Experiments:
[1] = target: anti-T4 Fab fragment; test: SPR (BIAcore T200) inhibition assay, immobilized T4-AP, affinity and specificity determination; type: binding, mouse; details: 2 nM anti-T4 Fab preincubated with analyte, T4-AP on CM5 chip, 2% DMSO-PBSP, triplicates
Method: T4-alkaline phosphatase was immobilized to the sensor surface and Kd values were determined by inhibition assay method.
T4-AP and AP (P5931, Sigma-Aldrich, St. Louis, Mo., USA), were diluted to 100 μg/mL concentration in 10 mM sodium acetate pH 4.0 (BR100351, GE Healthcare, Piscataway, N.J., USA). T4-AP and AP were immobilized to preconditioned CM5 chip using EDC/NHS—chemistry following manufacturer's instructions. Concentration of anti-T4 Fab fragment was calculated using theoretical extinction coefficient (ExPASy ProtParam tool, web.expasy.org/protparam) of the anti-T4 Fab fragment and by measuring the A280 with NanoDrop 2000c instrument (Thermo Disher Scientific, Waltham, Mass., USA). […] Flowrate was set to 30 μl/min in all cycle steps.
Preincubated mixtures were injected over the sensor chip surface for seven minutes and dissociated for 30 seconds. […] Data collection point was set to be 10 seconds after the start of dissociation phase. All sample series were run as triplicates, where a single sample series consisted from growing small molecule concentration in the preincubation mixture. Data was reference and blank subtracted. In addition, small differences in DMSO between the samples were compensated using DMSO solvent correction series, as recommended by instrument manufacturer GE Healthcare). Concentrations of free anti-T4 Fab fragments remaining in the preincubated mixtures were calculated by comparing the obtained responses against standard curve of anti-T4 Fab fragment. Affinity constants were calculated using BIAcore T200 Evaluation Software (GE Healthcare, Piscataway, N.J., USA) applying four-parameter logistic function. (See FIGS. 4A and B and Table 1.)

[2] = test system: anti-T4 Fab; test: competitive ELISA, T4-BSA coated wells, 0.25 nM anti-T4 Fab pre-incubated with analyte; type: binding, mouse; details: for pIC50: by ELISA assay, read-out: relative IC50
Method: Microtiter plate wells (Nunc, 436023) were coated with 100 μl of 4 μg/ml T4-BSA (Fitzgerald, 80-IT50) in PBS (15 mM phosphate, 150 mM NaCl, pH 7.3) for one hour at +37° C. with 600 rpm shaking. Wells were then washed three times with 300 μl PBS supplemented with 0.05% (v/v) Tween20 (Sigma-Aldrich, 93773-250G). Wells were blocked with 200 μl of Superblock® (Thermo Fisher Scientific, 37516) for 30 minutes in room temperature with 600 rpm shaking and washed as above. 100 μl of pre-incubated mixtures, containing 0.25 nM anti-T4 Fab and varying concentrations of L-thyroxine (T4) (Sigma-Aldrich, T2376) in PBSP (GE Healthcare, 28-9950-84) supplemented with 1% DMSO (v/v) (Sigma-Aldrich, D5879-100ML), were transferred to wells and incubated for 30 minutes with 600 rpm shaking in room temperature. Each sample had 12 replicates. Wells were washed as above and 100 μl of Goat anti-mouse Kappa-HRP (SoutherBiotech, 1050-05) diluted 1:1000 in Superblock was transferred to wells and incubation was carried out for 30 minutes at 600 rpm shaking in room temperature. Wells were washed as above and 100 μl of TMB Microwell Peroxidase Substrate System (2-C) (SeraCare, 50-76-00) was transferred to wells and enzymatic reaction was carried out for 30 minutes with 600 rpm shaking in room temperature. Reactions were stopped by transferring 100 μl of 1 M H3PO4 to the wells and measured at A450 using Varioskan (Thermo Fisher Scientific). Data was analysed with OriginPro 2017-software.
Assay was performed as in the previous paragraph (under title L-Thyroxine) except instead of T4 (Thyroxine) TIBPA (Tetraiodobisphenol A) was used.
Assay was performed as in the paragraph under title L-Thyroxine except instead of T4 (Thyroxine) TBBPA (Tetrabromobisphenol A) was used.
Assay was performed as in the paragraph under title L-Thyroxine except instead of T4 (Thyroxine) TCBPA (Tetrachlorobisphenol A) was used.
Assay was performed as in the paragraph under title L-Thyroxine except instead of T4 (Thyroxine) BPA (Bisphenol A) was used.

KD, anti-T4 Fab [1]	Compound	competition in competitive ELISA assay ([2]; high concentration (5 μM))	pKd [1]	pIC50 [2]
no binding	CC(C)(c1ccc(O)cc1)c1ccc(O)cc1 [BPA, Bisphenol A]	No competition was observed		
no binding	N[C@@H](Cc1ccc(Oc2ccc(O)cc2)cc1)C(=O)O [Compound T0]			
	N[C@@H](Cc1cc(I)c(Oc2cc(I)c(O)c(I)c2)c(I)c1)C(=O)O [Compound T4, 3,5,3′,5′-tetraiodothyronine]		9.28	9.27
	CC(C)(c1cc(Br)c(O)c(Br)c1)c1cc(Br)c(O)c(Br)c1 [TBBPA, Tetrabromobisphenol A]		7.16	7.13
	CC(C)(c1cc(Cl)c(O)c(Cl)c1)c1cc(Cl)c(O)c(Cl)c1 [TCBPA, Tetrachlorobisphenol A]		6.25	6.26
	CC(C)(c1cc(I)c(O)c(I)c1)c1cc(I)c(O)c(I)c1 [TIBPA, Tetraiodobisphenol A]		7.43	7.27
